Experimental data published in PubChem BioAssay (NCI).
Several values for one entry are separate records, joined by “and”; a condition that tells them apart may be missing. Equal entries are not always repeated.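 A five-concentration, 48-hour dose response in 96-well plates underlies each endpoint, interpolated linearly between surrounding concentrations. Here, GI50 denotes the concentration required for 50% inhibition of growth. TGI: total growth inhibition.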

Tests used:
Assay in all cases: inhibition of tumour cell growth, NCI panel, 48 h
[1] = system: MOLT-4 leukemia
[2] = system: MALME-3M melanoma
[3] = system: SNB-75 CNS
[4] = system: A498 renal
[5] = system: SK-MEL-5 melanoma
[6] = system: SK-MEL-2 melanoma
[7] = system: CAKI-1 renal
[8] = system: SK-MEL-28 melanoma
[9] = system: SF-268 CNS
[10] = system: U251 CNS

Row | Structure (SMILES) | GI50 [1] | TGI [1] | GI50 [2] | TGI [2] | GI50 [3] | TGI [3] | GI50 [4] | TGI [4] | GI50 [5] | TGI [5] | GI50 [6] | TGI [6] | GI50 [7] | TGI [7] | GI50 [8] | TGI [8] | GI50 [9] | TGI [9] | GI50 [10] | TGI [10]
1 | CCOc1cc(Br)c(C(C)NC(=O)c2cccc(OC)c2)cc1OCC (stereo not given) | 5.64 µM | > 100 µM | 9.9 µM | > 89.3 µM | 6.04 µM | 51.7 µM | 0.866 µM | 25.5 µM | 8.06 µM | 34.9 µM | 5.54 µM | > 76.7 µM | 13.3 µM | > 100 µM | 12 µM | > 100 µM | 22.9 µM | > 100 µM | 11.4 µM | > 100 µM
2 | CC1=C(/C=C/C(C)=C/C=C/C(C)=C/C=N/NC(=S)NC(=S)N/N=C/C=C(C)/C=C/C=C(C)/C=C/C2=C(C)CCCC2(C)C)C(C)(C)CCC1 | 1.16 µM and 0.667 µM | 6.09 µM and 2.45 µM | 1.19 µM and 0.882 µM | 5.91 µM and 2.63 µM | 2.06 µM and 1.16 µM | 6.75 µM and 3.28 µM | 6.57 µM and 1.36 µM | 13 µM and 5.83 µM | 1.55 µM and 1.56 µM | 5.03 µM and 6.03 µM | 5.79 µM and 1.82 µM | 12.5 µM and 6.97 µM | 1.6 µM and 0.853 µM | 7.12 µM and 2.9 µM | 3.23 µM and 1.85 µM | 9.12 µM and 6.78 µM | 5.38 µM and 2.47 µM | 11.9 µM and 9.11 µM | 2.17 µM and 1.58 µM | 7.18 µM and 4.62 µM
3 | Cn1nc(-c2ccc(Cl)cc2)nc2c(=O)n(C)c(=O)nc1-2 | 1.13 µM | 3.22 µM | 0.382 µM | 1.14 µM | 2.38 µM | 4.68 µM | 0.949 µM | 2.24 µM | 0.321 µM | 0.878 µM | 1.5 µM | 9.29 µM | 1.87 µM | 6.61 µM | 1.24 µM | 3.13 µM | 1.8 µM | 6.58 µM | 0.789 µM | 2.62 µM
4 | COc1cccc(-c2ccc3c(c2)C2CCN(Cc4ccccc4)C3C2)c1 (stereo not given) | 7.17 µM | 40.5 µM | 13.4 µM | 30.4 µM | 6.69 µM | 27.2 µM | 3.77 µM | 17.6 µM | 3.51 µM | 14.7 µM | 5.04 µM | 18 µM | 10.8 µM | 40.1 µM | 13.4 µM | 65.9 µM | 12.3 µM | 34.4 µM | 7.63 µM | 22 µM
5 | CC(C)(C)c1ccc(OC(=O)Nc2ccc(O)c(C(=O)O)c2)cc1 |  | > 100 µM |  | > 100 µM |  | > 100 µM |  | > 100 µM |  | > 100 µM |  | > 100 µM |  | > 100 µM |  | > 100 µM |  | > 100 µM |  | > 100 µM
6 | Brc1ccc2[nH]cc(-c3nc(-c4c[nH]c5ncccc45)cs3)c2c1 | 2.97 µM | 35.6 µM | 4.46 µM | 18.8 µM | 2.08 µM | 13.4 µM | 1.94 µM | 10.9 µM | 2.97 µM | 12.9 µM | 7.11 µM | 20.3 µM | 1.67 µM | 10.5 µM | 4.27 µM | 16.1 µM | 5.47 µM | 19.8 µM | 3.37 µM | 12.8 µM
